# Source: patent US11510869B2, “Medical devices including medicaments and methods of making and using same including enhancing comfort, enhancing drug penetration, and treatment of myopia” (priority 2010, dated 2022)
# “Also recorded” adds a separate entry of the source. Like-named read-outs stand apart in the source and are kept apart here.
# Experiments:
# myopia progression = conditions: cited from earlier work; for Control of myopia progression / Side effects: 0.01% atropine eye drops
# [1] = Ink testing of HA loaded ink; assay type: physicochemical
# Procedure: Required amount of HA was directly added in an ink, followed by sonication for 15 minutes, thus providing HA in a polymer matrix.
# In case of HA, which was HEMA monomer ink insoluble, its particulate form (without processing) is loaded in ink along with Tween 20, followed by sonication for 5 to 60 minutes.
# The following table provides results of ink testing.
# [2] = at therapeutic doses; cited from earlier work
# [3] = HA loaded ink, direct HA loading, 2% drug loading
compound,measurement,setting,value
CN1[C@@H]2CC[C@H]1C[C@@H](OC(=O)C(CO)c1ccccc1)C2 (stereo partly drawn) [Atropine],Control of myopia progression,myopia progression,effective in reducing the progression of myopia
same,Side effects,myopia progression,cycloplegia; also recorded: Photophobia; also recorded: elevation of intraocular pressures; also recorded: Risk of angle closure glaucoma
same,Control of myopia progression,myopia progression; listed as atropine,ability to control the progress of myopia; also recorded: effective in controlling myopia progression
same,Side effects,myopia progression; listed as atropine,limited side effects; also recorded: minimal side effects
same,Effect of discontinuation of atropine treatment,myopia progression; in some cases,rebound of myopia progression
same,Progression of myopia,myopia progression; low dose atropine drops in combination with multifocal glasses,slow the progression of myopia
Hyaluronic Acid [Hyaluronic Acid (HA)],EST (mN/m),[1]; [3],36.03 mN/m
same,Particle/globule size (nm),[1]; [3],1227 nm
same,Viscosity (c.p.),[1]; [3],12.6 c.p.
same,pH,[1]; [3],6
same,Solubility in HEMA monomer ink,[1]; HEMA monomer ink,insoluble
CCNC(=O)CCC/C=C\C[C@@H]1[C@@H](/C=C/[C@@H](O)CCc2ccccc2)[C@H](O)C[C@@H]1O [Bimatoprost],Systemic or local toxicity,[2],minimal systemic or local toxicity
